Assay results taken from patent US9932335B2 (priority 2013, dated 2018).
Where a chain is given by its changes, count along the chain named. Read-outs that look alike come from different tables or passages of the source.

Legend:
human M1 = target: T1, human M1 (Homo sapiens, UniProt P11229); assay: M1 PAM assay (FLIPR intracellular calcium, CHO human M1); assay type: cell-based
T1 construct: expressed in transfected cells; host or cells: CHO cells
T1 sequence (P11229 1-460): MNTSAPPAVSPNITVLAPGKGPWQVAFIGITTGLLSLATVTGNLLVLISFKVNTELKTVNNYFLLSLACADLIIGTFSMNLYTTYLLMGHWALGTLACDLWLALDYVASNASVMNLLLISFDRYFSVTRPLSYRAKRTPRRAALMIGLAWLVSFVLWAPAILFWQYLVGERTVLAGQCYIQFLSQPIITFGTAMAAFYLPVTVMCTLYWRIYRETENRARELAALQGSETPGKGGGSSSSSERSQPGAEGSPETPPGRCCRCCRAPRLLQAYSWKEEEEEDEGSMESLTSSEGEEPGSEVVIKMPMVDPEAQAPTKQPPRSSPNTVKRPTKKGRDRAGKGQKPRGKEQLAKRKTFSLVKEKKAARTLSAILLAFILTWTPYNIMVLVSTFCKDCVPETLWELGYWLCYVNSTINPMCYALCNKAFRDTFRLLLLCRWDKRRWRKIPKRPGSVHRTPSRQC
Experimental: The assay study the effect of several concentrations of test compounds on basal or acetylcholine-stimulated Ca^2+ levels using FLIPR. CHO human M1 are plated the day before the experiments at 2×10^5 cells/ml in PDL BioCoat 96 well black/clear plate (Becton 35 4640). The cells are grown at 37° C. and 5% CO2 in the following medium: F12 Nut Mix (Gibco 21765), 10% FCS heat inactivated (GIBCO 16000-044), 1% Pen Strep (Gibco, 15140) and 200 μg/ml Geneticin (Gibco 11811). On the day of the experiment, the medium was removed and replaced by 100 μl of dye loading buffer containing Hanks Balanced Salt solution (HBSS, 14065-049, Gibco) with 20 mM HEPES (Gibco 15630-056), 2 mM Probenicid (Sigma P8761), […] (Molecular Probes F-14202), 10% Pluronic acid Molecular Probes P-3000) pH=7.4 and incubated at 37° C. After 60 minutes extracellular dye was removed and the cells were washed five times with FLIPR buffer containing HBSS (Gibco 14065-049) with 20 mM HEPES (Gibco, 15630-056), 2 mM Probenicid (Sigma P8761) pre-warmed at 37° C. using and Ebml cell washer leaving 100 μl of FLIPR buffer in each well. The cell plate and the diluted compounds (1% DMSO final concentration) are placed on the platform of the FLIPR and the door closed. A signal test to check background fluorescence and basal fluorescence signal is performed. Laser intensity is adjusted if necessary. Two minutes preincubation with the diluted test compounds is provide to determine any agonist activity on the M1 receptor by comparison to 30 nM Acetylcholine control. In order to determine any modulator activity the diluted compounds were added to cells and after two minutes preincubation, the EC20 of acetylcholine is added followed by another two minutes preincubation before the measurement of intracellular Ca^2+ with a FLIPR (Molecular Devices).

M1 receptor = target: T2, M1 receptor (Rattus norvegicus, UniProt P08482); assay: M1 PAM assay (FLIPR intracellular calcium), rat; assay type: cell-based
T2 construct: expressed in transfected cells
T2 sequence (P08482 1-460): T1 sequence (P11229 1-460) with A5V, T254S, P309S, R320K, A337G, I413V

[1] = human M1 in CHO cells, modulator activity with EC20 of acetylcholine, FLIPR Ca2+, read-out: EC50 h PAM

`Cn1cc(-c2ccc(Cn3cc(C(=O)N[C@H]4CCOC[C@@H]4O)c4ncccc43)c(F)c2)cn1` (racemic) [Example 4, 1-(2-fluoro-4-(1-methyl-1H-pyrazol-4-yl)benzyl)-N-((3RS,4SR)-3-hydroxytetrahydro-2H-pyran-4-yl)-1H-pyrrolo[3,2-b]pyridine-3-carboxamide] was tested, and the EC50 (human M1) was 28.6 nM and the EC50 (M1 receptor) was 58.7 nM.
In the case of `COCC(O)CNC(=O)c1cn(Cc2ccc(-c3cnn(C)c3)cc2F)c2cccnc12` (racemic) [Example 7, rac-1-[2-Fluoro-4-(1-methyl-1H-pyrazol-4-yl)-benzyl]-1H-pyrrolo[3,2-b]pyridine-3-carboxylic acid (2-hydroxy-3-methoxy-propyl)-amide], the EC50 (human M1; [1]) is reported as 232 nM.
In the case of `Cn1cc(-c2ccc(Cn3cc(C(=O)N[C@H]4CCCC[C@H]4O)c4ncccc43)c(F)c2)cn1` (racemic) [Example 37], the EC50 (human M1) is reported as 162 nM and the EC50 (M1 receptor) is reported as 123 nM.
`Cn1cc(-c2ccc(Cn3cc(C(=O)N[C@H]4CCCC[C@]4(C)O)c4ncccc43)c(F)c2)cn1` (racemic) [Example 39, 1-(2-fluoro-4-(1-methyl-1H-pyrazol-4-yl)benzyl)-N-((1SR,2SR)-2-hydroxy-2-methylcyclohexyl)-1H-pyrrolo[3,2-b]pyridine-3-carboxamide] showed an EC50 (human M1) of 177 nM and an EC50 (M1 receptor) of 264 nM.
`Cn1cc(-c2ccc(Cn3cc(C(=O)N[C@H]4CCCC[C@@]4(C)O)c4ncccc43)c(F)c2)cn1` (racemic) [Example 40, 1-(2-fluoro-4-(1-methyl-1H-pyrazol-4-yl)benzyl)-N-((1SR,2RS)-2-hydroxy-2-methylcyclohexyl)-1H-pyrrolo[3,2-b]pyridine-3-carboxamide] showed an EC50 (human M1) of 47.9 nM and an EC50 (M1 receptor) of 63.2 nM.
`Cn1cc(-c2ccc(Cn3cc(C(=O)N[C@H]4CCOC[C@@H]4O)c4ncccc43)cn2)cn1` (racemic) [Example 57, N-((3RS,4SR)-3-hydroxytetrahydro-2H-pyran-4-yl)-1-((6-(1-methyl-1H-pyrazol-4-yl)pyridin-3-yl)methyl)-1H-pyrrolo[3,2-b]pyridine-3-carboxamide] gave an EC50 (human M1) of 143 nM and an EC50 (M1 receptor) of 133 nM.
`C[C@@H](O)CNC(=O)c1cn(Cc2ccc(-c3cnn(C)c3)cc2F)c2cccnc12` [Example 9] was tested, and the EC50 (human M1; [1]) was 459 nM.
`C[C@H](O)CNC(=O)c1cn(Cc2ccc(-c3cnn(C)c3)cc2F)c2cccnc12` [Example 10] was tested, and the EC50 (human M1; [1]) was 477 nM.
Work on `Cn1cc(-c2ccc(Cn3cc(C(=O)NC[C@@H](O)CO)c4ncccc43)c(F)c2)cn1` [Example 15, 1-[2-Fluoro-4-(1-methyl-1H-pyrazol-4-yl)-benzyl]-1H-pyrrolo[3,2-b]pyridine-3-carboxylic acid ((R)-2,3-dihydroxy-propyl)-amide] yielded an EC50 (human M1; [1]) of 333 nM.
`Cn1cc(-c2ccc(Cn3cc(C(=O)N[C@@H]4CCC[C@H]4O)c4ncccc43)c(F)c2)cn1` [Example 16, 1-[2-Fluoro-4-(1-methyl-1H-pyrazol-4-yl)-benzyl]-1H-pyrrolo[3,2-b]pyridine-3-carboxylic acid ((1R,2R)-2-hydroxy-cyclopentyl)-amide] showed an EC50 (human M1) of 397 nM.
`CC(C)[C@H](CO)NC(=O)c1cn(Cc2ccc(-c3cnn(C)c3)cc2F)c2cccnc12` [Example 21, 1-[2-Fluoro-4-(1-methyl-1H-pyrazol-4-yl)-benzyl]-1H-pyrrolo[3,2-b]pyridine-3-carboxylic acid ((R)-1-hydroxymethyl-2-methyl-propyl)-amide] showed an EC50 (human M1) of 201 nM.
In the case of `CCC[C@@H](CO)NC(=O)c1cn(Cc2ccc(-c3cnn(C)c3)cc2F)c2cccnc12` [Example 23, 1-[2-Fluoro-4-(1-methyl-1H-pyrazol-4-yl)-benzyl]-1H-pyrrolo[3,2-b]pyridine-3-carboxylic acid ((S)-1-hydroxymethyl-butyl)-amide], the EC50 (human M1) is reported as 205 nM.
With `CC(C)C[C@@H](CO)NC(=O)c1cn(Cc2ccc(-c3cnn(C)c3)cc2F)c2cccnc12` [Example 25, 1-[2-Fluoro-4-(1-methyl-1H-pyrazol-4-yl)-benzyl]-1H-pyrrolo[3,2-b]pyridine-3-carboxylic acid ((S)-1-hydroxymethyl-3-methyl-butyl)-amide] the EC50 (human M1; [1]) was 233 nM.
Compound `Cn1cc(-c2ccc(Cn3cc(C(=O)Nc4ccccc4CO)c4ncccc43)c(F)c2)cn1` [Example 29, 1-[2-Fluoro-4-(1-methyl-1H-pyrazol-4-yl)-benzyl]-1H-pyrrolo[3,2-b]pyridine-3-carboxylic acid (2-hydroxymethyl-phenyl)-amide] has an EC50 (human M1; [1]) of 298 nM.
With `Cn1cc(-c2ccc(Cn3cc(C(=O)NCC(O)c4ccccc4)c4ncccc43)c(F)c2)cn1` (stereo not shown) [Example 31, 1-[2-Fluoro-4-(1-methyl-1H-pyrazol-4-yl)-benzyl]-1H-pyrrolo[3,2-b]pyridine-3-carboxylic acid (2-hydroxy-2-phenyl-ethyl)-amide] the EC50 (human M1; [1]) was 429 nM.
With `Cc1ccc(NC(=O)c2cn(Cc3ccc(-c4cnn(C)c4)cc3F)c3cccnc23)c(CO)c1` [Example 33, 1-[2-Fluoro-4-(1-methyl-1H-pyrazol-4-yl)-benzyl]-1H-pyrrolo[3,2-b]pyridine-3-carboxylic acid (2-hydroxymethyl-4-methyl-phenyl)-amide] the EC50 (human M1; [1]) was 282 nM.
In the case of `Cc1cccnc1NC(=O)c1cn(Cc2ccc(-c3cnn(C)c3)cc2F)c2cccnc12` [Example 35, 1-[2-Fluoro-4-(1-methyl-1H-pyrazol-4-yl)-benzyl]-1H-pyrrolo[3,2-b]pyridine-3-carboxylic acid (3-methyl-pyridin-2-yl)-amide], the EC50 (human M1; [1]) is reported as 320 nM.
In the case of `CO[C@H]1CCCC[C@@H]1NC(=O)c1cn(Cc2ccc(-c3cnn(C)c3)cc2F)c2cccnc12` [Example 38, 1-[2-Fluoro-4-(1-methyl-1H-pyrazol-4-yl)-benzyl]-1H-pyrrolo[3,2-b]pyridine-3-carboxylic acid ((1S,2S)-2-methoxy-cyclohexyl)-amide], the EC50 (human M1; [1]) is reported as 369 nM.
With `Cn1cc(-c2ccc(Cn3cc(C(=O)N[C@@H]4COCC[C@H]4O)c4ncccc43)c(F)c2)cn1` [Example 42, 1-(2-fluoro-4-(1-methyl-1H-pyrazol-4-yl)benzyl)-N-((3R,4R)-4-hydroxytetrahydro-2H-pyran-3-yl)-1H-pyrrolo[3,2-b]pyridine-3-carboxamide] the EC50 (human M1) was 487 nM.
For `O=C(N[C@H]1CCCC[C@@H]1O)c1cn(Cc2ccc(Br)cc2)c2cccnc12` [Example 50, 1-(4-bromobenzyl)-N-((1S,2S)-2-hydroxycyclohexyl)-1H-pyrrolo[3,2-b]pyridine-3-carboxamide], the EC50 (human M1; [1]) was 319 nM.
Work on `Cn1cc(-c2cccc(Cn3cc(C(=O)N[C@H]4CCCC[C@@H]4O)c4ncccc43)c2)cn1` [Example 51, N-((1S,2S)-2-hydroxycyclohexyl)-1-(3-(1-methyl-1H-pyrazol-4-yl)benzyl)-1H-pyrrolo[3,2-b]pyridine-3-carboxamide] yielded an EC50 (human M1) of 443 nM.
Compound `N#Cc1ccc(Cn2cc(C(=O)N[C@H]3CCCC[C@@H]3O)c3ncccc32)c(F)c1` [Example 53, 1-(4-cyano-2-fluorobenzyl)-N-((1S,2S)-2-hydroxycyclohexyl)-1H-pyrrolo[3,2-b]pyridine-3-carboxamide] has an EC50 (human M1) of 321 nM.
In the case of `O=C(N[C@H]1CCCC[C@@H]1O)c1cn(Cc2ccc(Cl)cc2)c2cccnc12` [Example 54, 1-(4-chlorobenzyl)-N-((1S,2S)-2-hydroxycyclohexyl)-1H-pyrrolo[3,2-b]pyridine-3-carboxamide], the EC50 (human M1) is reported as 264 nM.
